According to paper PMC5059921, “Chalepin: isolated from Ruta angustifolia L. Pers induces mitochondrial mediated apoptosis in lung carcinoma cells” (BMC Complementary and Alternative Medicine, 2016):
Read-outs that look alike come from different tables or passages of the source.

How the values were obtained:
A549 cells [1] = test: Apoptosis detection by Annexin V-FITC/PI staining (flow cytometry); type: cell-based, human; details: incubation time not stated
Description: FITC annexin V apoptosis detection kit (BD) was used to detect apoptosis. Cells were seeded in tissue culture dishes (5000-7000 cells/dish) and allowed to adhere overnight. Next, the cells were treated with various concentrations of chalepin for 48 and 72 h. The cells were harvested, washed, and resuspended in 1x binding buffer according to the manual provided in the kit. In the next step, the cells were stained in the ratio of per 100,000 cells; staining of cells with 5 μL of FITC-annexin V and 5 μL of propidium iodide was done for 15 min. Then, 200 μL of 1× binding buffer was added to each sample. Unstained and single-stained untreated cells were also included as controls. A minimum number of 10,000 events was acquired for each replicate using Accuri C6 flow cytometer. A quadrant statistic was used to measure the population of viable, early apoptotic, late apoptotic and secondary necrotic cells. The determination betweent these different populations were obtained by estimating quantitatively the cells that were AnnexinV/PI stained.

A549 cells [2] = test: Mitochondrial membrane potential assay (JC-1, flow cytometry); type: cell-based; details: Homo sapiens, A549, 48 h, read-out: JC-1 dot plot: Viable
Description: A lipophilic and cell-permeable fluorochrome JC-1 (5,5’,6,6’-tetrachloro-1,1’,3,3’-tetraethyl benzimidazolyl carbocyanine iodide), was used to measure mitochondrial membrane potential (Δψm) according to the manufacturer’s instructions (BD MitoScreen Kit). The cells (1×10^6) were seeded in tissue culture plates and were treated with 18, 27, 36, and 45 μg/ml of chalepin for 48 h incubation. The cells were then harvested, washed with PBS twice and incubated with JC-1 dye for 15 mins at 37°C. At the end of the incubation, the cells were washed and resuspended with 500 μl of 1x assay buffer (provided in the kit). The intracellular fluorescence signals of JC-1 in the cells were then measured with Accuri C6 flow cytometer. Approximately 10,000 events were recorded per analysis. In healthy cells, JC-1 accumulates as aggregates in the mitochondria and emits red fluorescence. In cells, which have undergone apoptosis, JC-1 remains in monomeric form in the cytoplasm and emits green fluorescence. The red and green fluorescence were detected at FL-2 and FL-1 channels respectively in the flow cytometer. Ratio of mean fluorescence intensity between the FL1 and FL2 channels were calculated and this is used to determine the changes in the mitochondrial membrane potential. The results were analysed by calculating the ratio of JC-1 dimers to JC-1 monomers. A […] ratio indicated a […] membrane depolarization of mitochondria in cells (BD MitoScreen Flow Cytometry Mitochondrial Membrane Potential Detection Kit Instruction Manual). Cells that was untreated in 0.5 % DMSO acted as the control.
JC-1 (5,5’,6,6’-tetrachloro-1,1’,3,3’-tetraethyl benzimidazolyl carbocyanine iodide) mitochondrial membrane potential assay kit by Abcam was used to stain the A549 cells to view the mitochondrial membrane potential (Δψm) changes in cells. Prior to the JC-1 staining initiation, 1x dilution buffer were prepared by adding 10 mL 10× dilution buffer to 90 mL deionized water. The solution was mixed gently and throughly. JC-1 stock (1mM) was diluted to 20 μM working JC-1 solution. This was done by adding 200 μl of JC-1 stock solution into 10 mL of 1× dilution buffer. The cells (1×10^6) were seeded in tissue culture plates and were treated with 18, 27, 36, and 45 μg/ml of chalepin for 48 and 72 h incubation. The cells were then harvested, washed with PBS twice and incubated with JC-1 dye for 20 mins at 37 °C. At the end of the incubation, the cells were washed and resuspended with 1000 μl of 1× dilution buffer. The cells were viewed using a fluorescence microscope at an excitation wavelength of Ex475 ± 20nm and emission wavelength of Em530 ± 15 nm and 590 ± 17.5 nm. The images were captured and recorded.

A549 cells [3] = test: DNA fragmentation by APO-BrdU TUNEL assay; type: cell-based, human
Description: DNA strand breaks in apoptotic cells caused by the activation of endonucleases, were detected by APO-BrdU TUNEL assay kit. After incubation with various concentrations of chalepin at 48 and 72 h, cells were harvested and washed with PBS. Next, the cells were fixed with 1 % (w/v) paraformaldehyde for 15 mins, then washed with PBS, and fixed with 70 % (v/v) ethanol overnight. Ethanol was removed by centrifugation and DNA labeling steps were performed according to the manual provided in the kit. Samples were analyzed by flow cytometer and a minimum of 10,000 events were acquired for each replicate.

A549 cell line = test: SRB in vitro cytotoxicity screening; type: cell-based, human
Description: The human cell lines A549 (lung cancer) and Ca Ski (cervical cancer) were cultured as monolayer in RPMI 1640 growth media whereas HCT-116 (colon cancer) and MRC5 (human normal lung fibroblasts) was cultured in McCoy’s 5A and EMEM medium, respectively. All cells were purchased from the […] (ATCC, USA). All the media were supplemented with 10 % v/v foetal bovine serum (FBS), 100 μg/mL penicillin/streptomycin, and 50 μg/mL amphotericin B. The cells were cultured in a 5 % CO2 incubator at 37 °C.
The monolayer cell culture was detached using accutase and the cell count was adjusted to 2.5 x10^5 -3.0 x10^5 cells/mL using medium containing feotal bovine serum. The cells were then plated into 96 wells with a cell density of 5000-7000 cells/well and then incubated for 24 h to allow adherence of cells to the base of well of the plates. The media was then removed and 200 μl of fresh media containing different concentration of various extracts or isolated compounds were added. Cisplatin was used as the positive control. The plates were incubated for 24, 48 and 72 h at 37 °C and 5 % CO2. The cytotoxicity of the extracts and isolated compounds were screened using the […] (SRB) assay. This assay was first described by Houghton in 2007 [8]. The incubation was halted by gentle addition of 50 μl ice cold 4 % trichloroacetic acid (TCA) to each well and the plates were incubated at 4 °C for 1 h. Then, the supernatant was discarded and the plates were washed with distilled water for 5 times and then air dried. SRB dye, 50 μl, (0.4 % w/v) was added into each well and the treated cells and control were incubated at room temperature for 30 min. The unbound dye was removed by rapid washing four times with 1 % acetic acid. The plates were then air dried and 100 μl of tris base (10 mM unbuffered, pH 10.5) was added and the plates were shaken at 500 rpm for 5 min to solublize the bound SRB stain. The plates were then read with an ELISA reader (Synergy H1 Hybrid) at an absorbance of 492 nm.

C=CC(C)(C)c1cc2cc3c(cc2oc1=O)O[C@H](C(C)(C)O)C3 [Chalepin, chalepin]
Annexin V positive cells (early and late apoptotic) (A549 cells [1]; A549, 9 μg/ml): 7.27 ± 0.16%
Annexin V positive cells (early and late apoptotic) (A549 cells [1]; A549, 45 μg/ml): 20.6 ± 0.53%
viability at 18 µg/mL (A549 cells [2]): 78.3%
viability at 27 µg/mL (A549 cells [2]): 68.2%
viability at 36 µg/mL (A549 cells [2]): 54.2%
viability at 45 µg/mL (A549 cells [2]): 52.9%
DNA fragmentation, R3 (TUNEL positive cells) (A549 cells [3]; A549, 48 h, 45 μg/ml): 38.5 ± 0.70%
DNA fragmentation, R3 (TUNEL positive cells) (A549 cells [3]; A549, 72 h, 36 μg/ml): 73.50 ± 0.20%
DNA fragmentation, R3 (TUNEL positive cells) (A549 cells [3]; A549, 72 h, 45 μg/ml): 66.50 ± 0.29%
IC50 (A549 cell line; Homo sapiens, A549, 48 h, isolated compounds, 48 h, value in brackets, read-out: IC50 in μg/ml (μM) (A549) 48 h (converted)): 90.1 µM
IC50 (A549 cell line; Homo sapiens, A549, 48 h, isolated compounds, 48 h, read-out: IC50 in μg/ml (μM) (A549) 48 h (converted)): 28.3 ± 1.06 µg/mL
IC50 (A549 cell line; Homo sapiens, A549, 72 h, isolated compounds, 72 h, read-out: IC50 in μg/ml (μM) (A549) 72 h (converted)): 8.69 ± 2.43 µg/mL
IC50 (A549 cell line; Homo sapiens, A549, 72 h, read-out: IC50 in μg/ml (μM) (A549) 72 h, isolated compounds, 72 h, value in brackets): 27.6 µM
IC50 (A549 cell line; isolated compounds, 72 h, value in brackets, read-out: IC50 in μg/ml (μM) (A549) 72 h (converted)): 28 µM
